From patent publication US11160798B2, “Neuroprotective CB2 receptor agonists” (THE CLEVELAND CLINIC FOUNDATION, priority 2012, dated 2021)

Experiments:
Type in all cases: in vivo, rat
[1] = system: GFAP; test: GFAP immunoreactivity in hippocampal CA1 area (immunostaining, immunoblotting)
Protocol: (§1) Animals were divided into several groups ([…]). The Aβ1-40 group received bilateral intracerebral microinjection of Aβ1-40 fibrils once and saline intraperitoneally (i.p.) daily for 14 days. The Aβ1-40+MDA7 group received bilateral intracerebral microinjection of Aβ1-40 fibrils once and 15 mg/kg MDA7 i.p. daily for 14 days. Other cohorts received smaller doses of MDA7 (5 mg/kg or 1.5 mg/kg) i.p. daily for 14 days to determine the dose-response characteristics for MDA7. In other groups, AM630 (a CB2 antagonist) 5 mg/kg i.p. was administered daily for 14 days either alone (Aβ1-40+AM630 group) or 15 min prior to MDA7 (15 mg/kg i.p.) administration (Aβ1-40+MDA7+AM630 group) to rats injected with β1-40 fibrils. MDA7 group and control group received bilateral intracerebral microinjection of artificial cerebrospinal fluid (130 mM NaCl, 2.6 mM KCl. 4.3 mM MgCl2 and 1.8 mM CaCl2) once and 15 mg/kg MDA7 or saline i.p. daily for 14 days, respectively. Intraperitoneal administration of AM630, MDA7 or saline started on the same day after intracerebral microinjection of Aβ1-40. All drugs were prepared coded. Decoding was performed at the end of all experiments.
Microinjection of amyloid fibrils into the hippocampal CA1 area. Rats were anesthetized with sodium pentobarbital (45 mg/kg i.p.) and restrained in a stereotaxic apparatus. Aβ1-40 fibrils were formed as described previously. […]
Immunostaining. […] Three to six sections from each rat were randomly selected and were analyzed using Leica DMLB fluorescence microscope (Leica Microsystems Wetzlar GmbH, Germany) by one investigator, who was blinded to the origin of tissue being examined. Images were quantified using MCID Core software version 7.0 (InterFocus Imaging Ltd, Cambridge, England). […]

[2] = system: CA1 neurons; test: Long-term potentiation (LTP) in hippocampal CA1 slices; details: for average LTP: Aβ+MDA7 group (15 mg/kg i.p. 14 days), n=9
Protocol: as §1
Hippocampal slice preparation. Brain slices containing hippocampus were prepared. Brain slices used for electrophysiological recording were obtained from all rats (n=10-12 rats per group) that had been subjected to the Morris water maze test. All rats were anesthetized with pentobarbital and then euthanized by decapitation. […]
(§2) Whole-cell patch clamp recordings in hippocampal slices. […] The series resistance was optimally compensated by ≥70% and constantly monitored throughout the experiments. […] Excitatory postsynaptic currents (EPSCs) were recorded in the CA1 area in the presence of GABAA antagonist bicuculline (30 μM). The evoked EPSCs were filtered at 2 kHz, digitized at 10 kHz, and acquired and analyzed using Axograph X software. The amplitude of EPSCs was monitored for a baseline period of at least 15 min. […]

[3] = system: CA1 neurons; test: Evoked EPSCs (basal glutamatergic strength) in hippocampal CA1 slices, whole-cell patch clamp
Protocol: Animals were divided into several groups (40-50 rats per group). The Aβ1-40 group received bilateral intracerebral microinjection of Aβ1-40 fibrils once and saline intraperitoneally (i.p.) daily for 14 days. The Aβ1-40+MDA7 group received bilateral intracerebral microinjection of Aβ1-40 fibrils once and 15 mg/kg MDA7 i.p. daily for 14 days. Other cohorts received smaller doses of MDA7 (5 mg/kg or 1.5 mg/kg) i.p. daily for 14 days to determine the dose-response characteristics for MDA7. In other groups, AM630 (a CB2 antagonist) 5 mg/kg i.p. was administered daily for 14 days either alone (Aβ1-40+AM630 group) or 15 min prior to MDA7 (15 mg/kg i.p.) administration (Aβ1-40+MDA7+AM630 group) to rats injected with β1-40 fibrils. […]
as §2

CC1(Cc2ccccc2)COc2cc(C(=O)N3CCCCC3)ccc21 (centres unmarked) [MDA7, 3-benzyl-3-methyl-2,3-dihydrobenzofuran-6-carboxylic acid-piperidine amide]
GFAP immunofluorescence intensity ([1]; Aβ1-40-injected rats, 15 mg/kg i.p. for 14 days, vs saline, hippocampal CA1): significantly less | GFAP protein expression (immunoblot) ([1]; Aβ-injected rats, 14 days i.p. (15 mg/kg), vs saline, hippocampal CA1): significantly attenuated | GFAP expression, treatment alone ([1]; rats without Aβ1-40, compared to control rats): no significant effect | average LTP ([2]; 30 min after induction): 214.5±23.6% | average LTP ([2]; 60 min after induction): 195.7±21.8% | induction of LTP, treatment alone ([2]; hippocampal slices of control rats (no Aβ1-40)): failed to significantly affect | amplitude of evoked EPSCs in CA1 neurons ([3]; Aβ1-40-injected rats, 15 mg/kg i.p. for 14 days, all three stimulus intensities): restored | basal glutamatergic strength, treatment alone ([3]; MDA7 group (no Aβ1-40) vs control group): not different
